# Data: US10925884B2, “Methods of diagnosing and treating hepatocellular carcinoma” (MacKay Memorial Hospital, priority 2017, dated 2021)
# Columns and labels:
# [1] = tested on: Mahlavu cells; assay: Colony forming assay, Mahlavu cells; format: cell-based, Human; details: various dosage of trilostane, 10 to 13 days, FIG. 2A
# Procedure: (§1) Human HCC cancer cell lines (including Mahlavu, Hep3B, and Huh7) were cultured in Dulbecco's modified Eagle medium (DMEM), supplemented with 10% (v/v) fetal bovine serum and antibiotics (100 units/mL penicillin, 100 μg/mL streptomycin, and 2.5 μg/mL amphotericin B). All cell lines have been periodically authenticated by short tandem repeat analysis at Bioresource Collection and Research Center, Hsinchu, Taiwan (R.O.C.) and tested for being mycoplasma free. Trilostane was purchased from LKT Laboratories, St. Paul, Minn. A total of 500 Mahlavu or Hep3B HCC cancer cells were seeded into 6-well plate and treated with various dosage of trilostane. The medium was replaced every 3 days. After 10 to 13 days, colonies were stained with 3% crystal violet and examined by microscopy. Colonies containing at least 50 individual cells were counted.
# [2] = tested on: Hep3B cells; assay: Colony forming assay, Hep3B cells; format: cell-based, Human; details: various dosage of trilostane, 10 to 13 days, FIG. 2B
# Procedure: as §1
# [3] = tested on: Mahlavu cells; assay: Wound healing assay, Mahlavu cells; format: cell-based, Human; details: 24 hours, FIG. 2C
# Procedure: (§2) Human HCC cancer cell lines (including Mahlavu, Hep3B, and Huh7) were cultured in Dulbecco's modified Eagle medium (DMEM), supplemented with 10% (v/v) fetal bovine serum and antibiotics (100 units/mL penicillin, 100 μg/mL streptomycin, and 2.5 μg/mL amphotericin B). All cell lines have been periodically authenticated by short tandem repeat analysis at Bioresource Collection and Research Center, Hsinchu, Taiwan (R.O.C.) and tested for being mycoplasma free. Trilostane was purchased from LKT Laboratories, St. Paul, Minn. Mahlavu and Hep3B cells (2×10^5 cells/well) were seeded into 6-well plates and grown to confluence overnight. A wound was made by scraping with a sterilized 200-μL pipette tip in the middle of the cell monolayer, and the cells were allowed to migrate to the denuded area for 24 hours. The percentage of wound closure was measured using Olympus IX71 light microscope (Olympus, Tokyo, Japan).
# [4] = tested on: Hep3B cells; assay: Wound healing assay, Hep3B cells; format: cell-based, Human; details: 24 hours, FIG. 2D
# Procedure: as §2
# [5] = tested on: mahlave cells; assay: Transwell migration assay; format: cell-based, Human; details: FIG. 2E
# [6] = tested on: phosphorylated MEKK1 (p-MEKK1); assay: Western blot analysis of p-MEKK1 in Mahlavu cells; format: cell-based, Human; details: Mahlavu cells after trilostane treatment, FIG. 3
# Procedure: (§3) Total cellular proteins were extracted, quantified, and subject to gel electrophoresis. Whole-cell lysates were isolated from Mahlavu cells. Equal amounts of proteins (40 μg/lane) were electrophoresed in 10% sodium dodecyl sulfatepolyacrylamide gel. The transferred membrane was blocked with 5% defatted milk and immunoblotted with primary antibodies against various proteins, including ERK (total form), p-ERK, p-AKT, E-cadherin, N-cadherin, Snail1, Twist, Vimentin, MLC II (total form), p-MLC II, ROCK, and GAPDH at room temperature for 3 hours. The antigen-antibody complexes were visualized with by chemiluminescence with the Amersham ECL detection system (GE Healthcare, Piscataway, N.J.).
# [7] = tested on: phosphorylated ERK (p-ERK); assay: Western blot analysis of p-ERK in Mahlavu cells; format: cell-based, Human; details: Mahlavu cells after trilostane treatment, FIG. 3
# Procedure: as §3
# [8] = tested on: Mahlavu cells; assay: In vivo xenograft model of HCC; details: Mahlavu xenograft in BALB/c nude mice, 30 or 60 mg/kg intraperitoneally every day for 18 days; FIG. 4
# Procedure: All animal experiments were approved by the Institutional Animal Care and Use Committee of MacKay Memorial Hospital (Taiwan, R.O.C.). 6-week-old male BALB/c nude mice were injected subcutaneously with 1.0×10^7 Mahlavu cells into the bilateral back pad. When the tumor growth reached 50 mm^3, mice were randomly divided into three groups (n=5 mice each group): (1) low-dose group, in which 30 mg/kg of trilostane was intraperitoneally administered to the mouse every day for 18 days; (2) high-dose group, in which 60 mg/kg of trilostane was intraperitoneally administered to the mouse every day for 18 days; and (3) control group, in which vehicle control (Dimethyl sulfoxide, DMSO) of the same volume was intraperitoneally administered to the mouse every day for 18 days. The tumor volume was measured twice a week by the same investigator, and mice were sacrificed when tumors reached 10% of body weight.
compound,measurement,setting,value
C[C@]12CC[C@H]3[C@@H](CC[C@@]45O[C@@H]4C(O)=C(C#N)C[C@]35C)[C@@H]1CC[C@@H]2O [trilostane],colony numbers,[1],decreased colony numbers
same,colony numbers,[2],decreased colony numbers
same,wound closure,[3],significantly inhibited the wound closure
same,wound closure,[4],significantly inhibited the wound closure
same,cell migration,[5],inhibitory effect
same,expression of phosphorylated MEKK1 (p-MEKK1),[6],down-regulated
same,expression of phosphorylated ERK (p-ERK),[7],down-regulated
same,tumor growth rate,[8],significantly suppressed
